The values that follow come from patent US20160235807A1, “AGONISTS OF GUANYLATE CYCLASE USEFUL FOR DOWNREGULATION OF PRO-INFLAMMATORY CYTOKINES” (SYNERGY PHARMACEUTICALS, INC., priority 2013, published 2016).

Data set [1] relates to TNBS-induced colitis. Nature of the data set: TNBS-induced colitis in BALB/c mice. In kind it is in vivo, mouse. Particulars: plecanatide 0.5 and 2.5 mg/kg oral once daily 7 days; p<0.05; preliminary study. How it is done:
Mouse strains BDF1 and BALB/c were used to examine the efficacy of plecanatide in TNBS induced colitis. The procedures used were as previously described (Hegazi et al., 2005; Dave et al., 2009). Briefly, to induce colitis in specific pathogen-free 2-4 months old female BALB/c mice, 0.5 mg of TNBS in 50% ethanol was slowly administered into the lumen of the colon via a 3.5 F catheter fitted onto a 1-ml syringe (total injection volume 100 μl). Plecanatide formulated in PBS was administered by oral gavage for a total of 7 days, with the first dose given one day prior to TNBS challenge. […]
(§1) Disease activity index (DAI) was calculated by scoring in-life parameters starting from day −1 until the end of the study. Once daily, all mice were weighed and assessed for stool consistency, and the presence of overt blood in the stool or around the anus essentially similar to that reported earlier. Colitis severity was assessed by histopathological analyses of H&E stained tissue sections (Hegazi et al., 2005; Dave et al., 2009) employing the following criteria: (score 0) normal appearing crypts; (score 1) abnormal crypt pathology without ulceration; (score 2) depleted crypts with ulceration; (score 3) 20-50% depleted crypts and increased ulceration; (score 4) >50% depleted crypts with substantial ulceration and (score 5) totally ulcerated/inflamed colon with no crypts remaining. […]

Data set [2] is classed as in vitro ADME. The protocol:
(§2) The potency of test peptides to stimulate cGMP synthesis in T84 cells was assayed by a published procedure (Shailubhai et al. 2000). Briefly, confluent monolayers of T-84 cells in 24-well plates were washed twice with 250 μl of DMEM containing 50 mM HEPES (pH 7.4), pre-incubated at 37° C. for 10 min with 250 μl of DMEM containing 50 mM HEPES (pH 7.4) and 1 mM isobutylmethylxanthine (IBMX), followed by incubation with test peptide for 30 min. The medium was aspirated, and the reaction was terminated by the addition of 3% perchloric acid. Following centrifugation, and neutralization with 0.1 N NaOH, the resulting supernatant was used directly for measurements of intracellular cGMP using an ELISA kit (Caymen Chemical, Ann Arbor, Mich.). Results are expressed as pmol of cGMP/mg of protein in the cell extracts.
(§3) Plecanatide and SP-333 were incubated in simulated intestinal fluid (SIF) for 6-24 h. Inactivated SIF was used as a control. Following the treatment, samples were analyzed by HPLC by cGMP production in T84 cells. […] The active metabolite, SP-338 was characterized by MS and MS/MS and identified to be formed via removal of carboxyl terminal leucine possibly due to cleavage by carboxypeptidases.

The target of data set [3] is T1, GC-C Receptor (Homo sapiens, UniProt P25092).
T1 construct: endogenous in cells; host or cells: T84 human colon carcinoma cells
T1 sequence (P25092 24-1073): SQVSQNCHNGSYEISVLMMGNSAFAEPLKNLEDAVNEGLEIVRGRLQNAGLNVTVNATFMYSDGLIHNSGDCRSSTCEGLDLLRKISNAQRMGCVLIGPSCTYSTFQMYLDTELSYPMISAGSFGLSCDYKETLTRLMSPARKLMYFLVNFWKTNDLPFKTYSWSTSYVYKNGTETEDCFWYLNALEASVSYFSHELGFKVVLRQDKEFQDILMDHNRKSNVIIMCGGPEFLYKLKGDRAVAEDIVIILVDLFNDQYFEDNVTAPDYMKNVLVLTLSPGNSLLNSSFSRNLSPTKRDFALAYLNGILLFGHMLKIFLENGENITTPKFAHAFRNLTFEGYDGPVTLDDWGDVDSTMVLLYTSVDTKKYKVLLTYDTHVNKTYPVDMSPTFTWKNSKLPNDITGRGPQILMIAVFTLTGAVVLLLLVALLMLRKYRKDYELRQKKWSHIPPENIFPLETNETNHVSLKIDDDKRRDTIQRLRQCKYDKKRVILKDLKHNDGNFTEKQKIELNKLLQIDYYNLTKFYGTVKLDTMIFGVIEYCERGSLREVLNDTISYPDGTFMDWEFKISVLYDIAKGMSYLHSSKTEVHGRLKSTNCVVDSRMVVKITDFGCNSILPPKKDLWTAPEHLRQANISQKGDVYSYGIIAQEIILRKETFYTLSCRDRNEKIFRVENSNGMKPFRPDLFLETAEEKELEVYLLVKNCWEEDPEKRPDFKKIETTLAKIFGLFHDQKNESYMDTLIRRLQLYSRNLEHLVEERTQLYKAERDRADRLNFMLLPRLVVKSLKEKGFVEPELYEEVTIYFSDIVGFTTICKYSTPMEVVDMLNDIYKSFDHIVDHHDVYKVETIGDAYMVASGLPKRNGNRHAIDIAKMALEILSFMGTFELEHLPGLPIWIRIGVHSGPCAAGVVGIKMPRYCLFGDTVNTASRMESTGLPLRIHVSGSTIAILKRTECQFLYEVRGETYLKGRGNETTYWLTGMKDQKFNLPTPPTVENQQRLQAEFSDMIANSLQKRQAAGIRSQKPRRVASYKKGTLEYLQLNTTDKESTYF
Nature of the data set: Cyclic GMP stimulation assay in T84 cells. Format: cell-based. The protocol:
as §2

The test system of data set [4] is colonic explants. Nature of the data set: Explant cultures of colon tissue from TCRα−/− mice, cytokine and chemokine ELISA. In kind it is in vivo, mouse. The following applies: explant culture 24 h, plecanatide treated mice. How it is done: (§4) Colonic tissue fragments (0.5 g dry weight) from the TNBS-induced colitis mice and TCRα^−/− knockout mice were processed as previously described (Hegazi et al., 2005). Tissue fragment supernatants were collected after 24 h for cytokine ELISAs. Murine immunoassay kits (R&D System) were used according to the manufacturer's instructions for IL-12p40, IL-23 and TNF. Linco Cytokine-16 plex Mouse ELISA was performed for MIP-1α, RANTES, IL-10 and IL-17 (Millipore) as per manufacturer's instructions.
(§5) Murine IL-12 p40, IL-1β, TNF, IFN-γ, immunoassay kits (R&D System, MN, USA) were used according to the manufacturer's instructions. Linco Cytokine-16 plex Mouse ELISA was performed for MIP-1α, RANTES, IL-10, TNF and IL-17 (Millipore, Billerica, Mass.) as per manufacturer's instructions.

The subject of data set [5] is colon dysplasia. The following applies: oral plecanatide; Chang et al., 2014; Shailubhai et al., 2012; cited from earlier work.
Data set [6] concerns colonic explants. Nature of the data set: Explant cultures of colon tissue from TNBS-induced colitis BALB/c mice, cytokine ELISA. Format: in vivo, mouse. Particulars: 24 h, vs vehicle-treated explants. How it is done: as §4, §5
On the technique in general: In an ELISA, binding on a coated surface is turned into a signal by an enzyme label.

The test system of data set [7] is colitis in TCRα −/− mice. Nature of the data set: Spontaneous colitis in TCRα−/− mice. Format: in vivo, mouse. Particulars: plecanatide 0.5 and 2.5 mg/kg oral daily for 14 days; vs vehicle. How it is done: TCRα^−/− mice were matched for age and sex in all experiments. 16 week old TCRα−/− mice were treated with plecanatide at 0.5 or 2.5 mg/kg/day or PBS vehicle control by oral gavage for 14 days (6 mice per group). Mice were sacrificed 12 h after the final dose, and GI tissues were collected for experimental analyses. Colitis severity in TCRα^−/− model was scored as described (Berg et al., 1996).
as §1, with “remaining. All slides were scored in a blinded manner. Colitis severity in TCRα−/− model was scored as previously described^25. […].” for “remaining.”

The test system of data set [8] is DSS-induced colitis. Nature of the data set: DSS-induced colitis in BDF-1 mice. In kind it is in vivo, mouse. The protocol:
To evaluate the efficacy of plecanatide in DSS induced colitis model, 48 BDF-1 mice were divided into 8 treatment groups (6 mice/group). One group was not exposed to DSS (untreated control) and groups 2-8 were treated with 5% DSS in the drinking water on day 0. Plecanatide or SP-333 solutions formulated in 0.1M phosphate buffer (pH 7) was administered by oral gavage, once a day at 0.005, 0.05, 0.5, 2.5 and 5 mg/kg, from study day −1 (i.e. prior to initiation of DSS treatment) through day 6 for SP-333 or day 7 for plecanatide. DSS treatment was initiated on day 0 for groups 2-8 until the end of the study. Sulfasalazine (80 mg/kg) or 5-ASA (100 mg/kg) was used as positive control and was administered daily. Mice were sacrificed on day 7. The large intestine was removed and weighed. Distal section of the large intestine was collected and fixed as described above.
(§6) Disease activity index (DAI) was calculated by scoring in-life parameters starting from day −1 until the end of the study. Once daily, all mice were weighed and assessed for stool consistency, and the presence of overt blood in the stool or around the anus essentially similar to that reported earlier. Colitis severity was assessed by histopathological analyses of H&E stained tissue sections (Hegazi et al., 2005; Dave et al., 2009) employing the following criteria: (score 0) normal appearing crypts; (score 1) abnormal crypt pathology without ulceration; (score 2) depleted crypts with ulceration; (score 3) 20-50% depleted crypts and increased ulceration; (score 4) >50% depleted crypts with substantial ulceration and (score 5) totally ulcerated/inflamed colon with no crypts remaining. All slides were scored in a blinded manner. Colitis severity in TCRα−/− model was scored as previously described^25. All slides were scored in a blinded manner. Disease activity index (DAI) was calculated by assessing body weight, stool consistency, and the presence of overt blood in stools or around the anus, essentially similar to that reported earlier (Hamamoto et al., 1999).

Data set [9] is classed as in vitro ADME. The protocol:
as §3
This is another data set of the same source.

Data set [10] relates to TNBS-induced colitis. Nature of the data set: TNBS-induced colitis in BDF-1 mice. In kind it is in vivo, mouse. The protocol: Mouse strains BDF1 and BALB/c were used to examine the efficacy of plecanatide in TNBS induced colitis. The procedures used were as previously described (Hegazi et al., 2005; Dave et al., 2009). Briefly, to induce colitis in specific pathogen-free 2-4 months old female BALB/c mice, 0.5 mg of TNBS in 50% ethanol was slowly administered into the lumen of the colon via a 3.5 F catheter fitted onto a 1-ml syringe (total injection volume 100 μl). Plecanatide formulated in PBS was administered by oral gavage for a total of 7 days, with the first dose given one day prior to TNBS challenge. Mice were observed daily for body weight, food consumption and for signs of any apparent toxicity, rectal bleeding or prolapse. After 7 days of treatment, GI tissue collection, fixation and histopathological scoring were performed essentially as described previously (Sheikh et al., 2011). GI tissues were also collected and immediately processed for explant culture and cytokine expression as described below.
To induce colitis in BDF1 mice, a total of 90, 10-12 week old, H. pylori free male mice were used. Animals were randomized into 9 groups. TNBS was rectally administered as described above in a total injection volume of 100 μl. Oral administration of PBS formulated plecanatide (0.0005-50 mg/kg), animal monitoring and collection of GI tissues was performed as described above. Daily administration of plecanatide was continued through day 6, when the mice were euthanized. […] Distal sections were fixed, stained with H&E, and evaluated for histopathology and visual severity scores (Hegazi et al., 2005; Dave et al., 2009). […]
as §6

The structures appear in SMILES notation. Entries after “also recorded” stand apart in the source; their conditions may differ. Bridge positions count the residues as written; N and C are the ends. Peptide text beside a SMILES is read from it.

`CC(C)C[C@H](NC(=O)[C@@H]1CSSC[C@@H]2NC(=O)[C@H](CC(C)C)NC(=O)[C@H](CCC(=O)O)NC(=O)[C@@H](NC(=O)[C@H](CCC(=O)O)NC(=O)[C@H](CC(=O)O)NC(=O)[C@@H](N)CC(N)=O)CSSC[C@H](NC(=O)[C@H](C)NC(=O)[C@H](C(C)C)NC(=O)[C@H](CC(N)=O)NC(=O)[C@H](C(C)C)NC2=O)C(=O)N[C@@H]([C@@H](C)O)C(=O)NCC(=O)N1)C(=O)O` [plecanatide, Asn^1-Asp^2-Glu^3-Cys^4-Glu^5-Leu^6-Cys^7-Val^8-Asn^9-Val^10-Ala^11-Cys^12-Thr^13-Gly^14-Cys^15-Leu^16] (H-NDECELCVNVACTGCL-OH; disulfide 4-12, 7-15 (inferred)): the colitis scores result in data set [1] is reported as “significantly lower; also recorded: effectively ameliorated”. In data set [2], this compound returned an activity retained of around 70% and a biological activity lost of around 35%. Besides, the “potency to stimulate cGMP in T84 cells” value in data set [3] is “dose dependent increase in cGMP; also recorded: comparable to that of SP-333”. Further, in data set [4], the “levels of secreted IL-10” value is “increased”, the “production of IL-17” value is reported as “considerably suppressed”, the “production of MIP-1α” value was “considerably suppressed” and the “production of RANTES” value is recorded as “considerably suppressed”. For the same compound, the colon dysplasia entry in data set [5] was “considerably reduced”. Moreover, in data set [6], the “suppression of secretion of IL-12p40” value is listed as 37%, the “suppression of secretion of IL-23” value is 84% and the “suppression of secretion of TNF” value came to 67%. In addition, the colitis scores entry in data set [7] is reported as “reduced”. Further, the “DSS induced colitis severity score” value in data set [8] (plecanatide 0.005 mg/kg oral gavage once a day, vs untreated controls p=0.02) was “significantly lower; also recorded: as effective as sulfasalazine (80 mg/kg)”. Also, the “amelioration of DSS-induced colitis at higher doses” value in data set [8] (plecanatide doses higher than 0.005 mg/day (so in the source)) is given as “did not produce incremental effect”. Moreover, the “colitis severity compared with reference compound sulfasalazine (80 mg/kg)” value in [8] (plecanatide, DSS model) was “superior to treatment with reference compound”. In [9], the “HPLC analysis after digestion with SIF” value was “completely converts plecanatide into a shorter peptide” and the “time over which intact peptide was stable, HPLC” value is recorded as “up to 6 h”. Moreover, the colitis severity result in data set [10] (plecanatide 0.05 mg/kg and higher doses oral, vs untreated controls) is reported as “significantly lower; also recorded: statistically significant reduction”. The colitis severity entry in data set [10] (plecanatide doses under 0.005 mg/kg oral) was “ineffective”. The effective dose-range in data set [10] (plecanatide oral, TNBS model) lay within 0.05 to 0.5 mg/kg. Further, the “colitis severity compared with reference compound sulfasalazine (80 mg/kg)” value in data set [10] (plecanatide, TNBS model) is “superior to treatment with reference compound”.
